# Values of other authors as cited in patent publication US12279614B2, “Photo-polymerizable, universal antimicrobial coating to produce high-performing, multi-functional face masks” (The Governors of the University of Alberta, priority 2022, dated 2025).
# Tested on: Human Adenovirus Type 8
# Details: incubation time 1 hr
substance,measurement,value
Benzalkonium chloride,Inactivation efficiency,1.01 log reduction
